Experimental data as given in patent EP1134585B1, “Biosensor and method for the monitoring of herbicides” (CONSIGLIO NAZIONALE DELLE RICERCHE, priority 2000, dated 2001).

Key:
D1 protein Val219->Ile = D1 protein Val219->Ile (Chlamydomonas reinhardtii, UniProt P07753, V219I); settings: code Dr2; cited from earlier work
Phe216->Leu = settings: cited from earlier work
I1e229→Met = settings: R. capsulatus; cited from earlier work
[1] = tested on: thylakoids from Amaranthus retroflexus, Mutant; type: biochemical; settings: herbicide concentration 10^-6 M
Phe216→Val = settings: cited from earlier work
I1e229->Ala = settings: cited from earlier work
monoclonal antibodies = settings: ELISA (Schneider et al. 1994); cited from earlier work
Gly228->Arg = settings: cited from earlier work
Gly228->Val = settings: cited from earlier work
[2] = target: T1, thylakoids from Spinacia oleracea (Spinacia oleracea, UniProt P69560); assay: Biosensor fluorescence response (Tables B and C); type: biochemical; settings: for inhibition at 0.01 µM: control printed as 100
T1 construct: biomediator based on thylakoids from Spinacia oleracea; from tissue; host or cells: thylakoids isolated from mature spinach plants
Source text: (§1) According to a specially advantageous embodiment, Bioherbi is an equipment weighing in all about […], occupies a space of about 30x30x20 cm and is constituted as reported below. • a) flow cell wherein the biomediator is immobilized. […] The black plastic material allows to fit the biomediator in the dark. The biomediator in entrapped in the inner section. The surface tightness of the reading hole is obtained using a glass cover plate for microscopy. The inner cell, where the mediator is entrapped, has un volume from 50 to 300 µl. • b) a peristaltic pump is the hydraulic part to withdraw the sample containing the herbicide to be analyzed, which moves said sample through the flow cell and brings it in close contact with the biomediator. According to a specially advantageous embodiment a single block is used as holder for the herbicide and peristaltic pump. The flow can be varied from 0,2 to 2 ml/min depending on the sample. Higher flow increases the sensitivity to the herbicide because the latter interacts with a higher number of bonding sites on PS II. By laboratory tests it was found out that, when the solution of the herbicide flows, the efficiency of the fluorescence measure could be impaired by light scattering effects. Accordingly it is preferred to carry out the measure in stopped-flow conditions using a flow switch. The biomediator immobilized within the flow cell, following each measure, is washed and regenerated by a suitable buffer solution. A valve allows to forward alternatively the flow of the buffer or the solution containing the herbicide to be analyzed. • c) optical fiber fluorescence sensor closely connected to the flow cell. The fluorescence emitted from green plants depends on the photosynthetic activity. Recent studies on fluorescence measuring techniques made this feature a very important tool in the basic and applied research about the plant physiology (D Lazar, 1999, Biochim Biophys Acta 1-28). Bioherbi analyzer measures the fluorescence emitted from photosynthetic complexes and modifications determined by the presence of herbicide. The sensor is tightly connected to the flow cell to avoid any infiltration of external light and provides the excitation light detecting the fluorescence signal. The excitation light is emitted from an emitting diode at a very narrow wavelength of about 650 nm, which is quickly absorbed by the Photosystem II of the photosynthetic organisms and has the advantage in that it provides light with reduced heating and emits the signal very quickly. A "feedback" optical circuit controls and adjusts the variations of the intensity of the emitted light also resulting from variations of ambient temperature. The analyzer consists of an high capacity photodiode associated to an amplifier. The optical system responds perfectly to the fluorescence emission wavelength of 700 nm and stops the reflection light of lower wavelength resulting from the emission light. The sensor is connected to the control computer by an about 30 cm long fiber. According to a variation of the biosensor we used a more complex fluorescence system, adjustable as the excitation light in order to allow the use, as biomediator, of photosynthetic organisms requiring specific wavelengths. • e) a control and data processing computer. […] The concentration of the herbicide is proportional to the area over the fluorescence curve (Table 1A-B); the inhibition of this area is closely related to the washing times whereby it is possible to determinate the concentration of the herbicide also using the washing time required to obtain an almost complete inhibition of the area (see Table 1C). The fluorescence signal received by the sensor is processed within the control chamber by transduction systems of the signal and analog-to-digital converters. The system is computerized with a very sophisticated microprocessor able to process the data of the fluorescence signal. […]

Thr226->Ala = settings: cited from earlier work
PhC2,6―Pro = settings: cited from earlier work
D1 protein Phe255->Tyr [3] = target: D1 protein Phe255->Tyr (Chlamydomonas reinhardtii, UniProt P07753, F255Y); settings: code Ar207+; cited from earlier work
[4] = target: D1 protein Phe211→Ala Met214→Thr (Chlamydomonas reinhardtii, UniProt P07753, F211A/M214T); settings: cited from earlier work
Tyr222->Phe = settings: code T4; cited from earlier work
Phe216->Thr = settings: cited from earlier work
[5] = tested on: thylakoids from Amaranthus retroflexus, Wild-type; assay: Biosensor fluorescence response (Table D), wild-type biomediator; type: biochemical; settings: herbicide concentration 10^-6 M
[6] = tested on: PS II isolated from thermophilic cyanobacteria; settings: immobilized PS II, Clark electrode (Koblizek et al.); cited from earlier work
D1 protein A/a251->lIe = D1 protein A/a251->lIe (Chlamydomonas reinhardtii, UniProt P07753, A251I); settings: cited from earlier work
PS II = PS II treated with CdCl2, refrigeration at 5°C, flow 0,2-2,0 ml/m
Source text: To further increase the stability of the biomediator the usefulness of a system for the refrigeration of the solution containing herbicide forwarded into the measuring cell experimentally was observed.

I1e229->Cys = settings: cited from earlier work
D1 protein Asn266->Asp = settings: code loxlla; cited from earlier work
Vicia faba thylakoids = Vicia faba thylakoids (Vicia faba, UniProt P13910); assay: Biosensor fluorescence response, immobilized thylakoids (Table A); type: biochemical; settings: contact time 20 min
Source text: as §1

I1e228->Leu = settings: cited from earlier work
Thr226->Met = settings: cited from earlier work
[7] = target: D1 protein Ala250→Ser Phe255→IIe (Chlamydomonas reinhardtii, UniProt P07753, A250S/F255I); settings: cited from earlier work
D1 protein Ala250->Arg = D1 protein Ala250->Arg (Chlamydomonas reinhardtii, UniProt P07753, A250R); settings: cited from earlier work
[8] = target: D1 protein Phe211->Ile Met214->Gly (Chlamydomonas reinhardtii, UniProt P07753, F211I/M214G); settings: cited from earlier work
D1 protein Ala250->Asn = D1 protein Ala250->Asn (Chlamydomonas reinhardtii, UniProt P07753, A250N); settings: cited from earlier work
D1 protein Phe255->Tyr [9] = target: D1 protein Phe255->Tyr (Synechococcus elongatus, UniProt P04996, F255Y); settings: Synachococcus PCC7942, code TyrS; cited from earlier work
D1 protein A1a251→Gly = D1 protein A1a251→Gly (Chlamydomonas reinhardtii, UniProt P07753, A251G); settings: cited from earlier work
[10] = target: D1 protein I1e259->Ser Ser264->Ala Asn266->Thr (Chlamydomonas reinhardtii, UniProt P07753, I259S/N266T/S264A); settings: cited from earlier work
D1 protein A1a250->Tyr = D1 protein A1a250->Tyr (Chlamydomonas reinhardtii, UniProt P07753, A250Y); settings: cited from earlier work
D1 protein Arg257->Val = D1 protein Arg257->Val (Synechocystis sp., UniProt P16033, R257V); settings: cited from earlier work
D1 protein Ser264->Thr = settings: Euglena, code MSI; cited from earlier work
D1 protein Ala250->Asp = D1 protein Ala250->Asp (Chlamydomonas reinhardtii, UniProt P07753, A250D); settings: cited from earlier work
D1 protein Ser264->Ala [11] = target: D1 protein Ser264->Ala (Synechococcus elongatus, UniProt P04996, S264A); settings: Synechococcus sp. PCC7942, code Dil; cited from earlier work
[12] = target: D1 protein Leu275->Phe (MZ4) (Chlamydomonas reinhardtii, UniProt P07753, L275F); settings: code MZ4; cited from earlier work
[13] = target: D1 protein Phe255->Tyr Ser264->Ala (Synechococcus elongatus, UniProt P04996, F255Y/S264A); settings: code D5; cited from earlier work
[14] = target: D1 protein Phe211→Gly Met214→Gln (Chlamydomonas reinhardtii, UniProt P07753, F211G/M214Q); settings: cited from earlier work
D1 protein Ser264->Ala [15] = target: D1 protein Ser264->Ala (Chlamydomonas reinhardtii, UniProt P07753, S264A); settings: codes MZ1 MZ3 MZ5; cited from earlier work
[16] = target: D1 protein Ser264→Ala Asn266→Thr (Chlamydomonas reinhardtii, UniProt P07753, N266T/S264A); settings: cited from earlier work
[17] = Table B, first column Diuron 10^-8 M, contact time 15 min
[18] = Table B, second column Diuron 10^-8 M, contact time 15 min
[19] = Diuron 10^-9 M, after regeneration

O=c1[nH]c2c(c(=O)n1C1CCCCC1)CCC2 [Lenacil]
Supersensitivity R/S (D1 protein Val219->Ile): Lenacil 0,8

CN(C)C(=O)Nc1ccc(Cl)c(Cl)c1 [Diuron]
Resistance R/S (Phe216->Leu): Diuron 1 | Resistance R/S (I1e229→Met): Diuron 1 | Area % inhibition Mutant [1]: 96% | Resistance R/S (Phe216→Val): Diuron 1 | Resistance R/S (I1e229->Ala): Diuron 1 | sensitivity (monoclonal antibodies): 200 pM | Resistance R/S (Gly228->Arg): Diuron 1 | Resistance R/S (Gly228->Val): Diuron 1 | Area [2, 17]: 12700 | Fv/Fm [2, 17]: 0,768 | inhibition at 0.01 µM [2, 17]: 88% | Area [2, 18]: 10400 | Fv/Fm [2, 18]: 0,756 | inhibition at 0.01 µM [2, 18]: 71% | Area ([2]; Table C, Diuron 10^-7M, 10 min): 7830 | Fv/Fm ([2]; Table C, Diuron 10^-7M, 10 min): 0,746 | inhibition at 0.1 µM ([2]; Table C, Diuron 10^-7M, 10 min): 32% | Area ([2]; Table C, Diuron 10^-7M, 40 min): 6120 | Fv/Fm ([2]; Table C, Diuron 10^-7M, 40 min): 0,711 | inhibition at 0.1 µM ([2]; Table C, Diuron 10^-7M, 40 min): 47% | Area ([2]; Table C, Diuron 10^-7M, 50 min): 5090 | Fv/Fm ([2]; Table C, Diuron 10^-7M, 50 min): 0,700 | inhibition at 0.1 µM ([2]; Table C, Diuron 10^-7M, 50 min): 56% | Area ([2]; Table C, Diuron 10^-7M, 60 min): 4160 | Fv/Fm ([2]; Table C, Diuron 10^-7M, 60 min): 0,684 | inhibition at 0.1 µM ([2]; Table C, Diuron 10^-7M, 60 min): 64% | Resistance R/S (Thr226->Ala): Diuron 1 | Resistance R/S (PhC2,6―Pro): patron 1 | Supersensitivity R/S (D1 protein Phe255->Tyr [3]): Diuron 0,6-0,8 | Supersensitivity R/S [4]: Diuron 0,8 | Supersensitivity R/S (Tyr222->Phe): Diuron <0,0001 | Resistance R/S (Phe216->Thr): Diuron 1 | Area % inhibition Wild-type [5]: 99% | sensitivity [6]: 10^-10 mol/l | Supersensitivity R/S (D1 protein A/a251->lIe): Diuron 0,6 | sensitivity (concentration) (PS II): lower than nanomolar | Resistance R/S (I1e229->Cys): Diuron 1 | Supersensitivity R/S (D1 protein Asn266->Asp): Diuron 0,7 | Area (Vicia faba thylakoids; Diuron 10^-6 M, area over the fluorescence curve): 10300 | inhibition at 1 µM (Vicia faba thylakoids; Diuron 10^-6 M, inhibition of area vs control): 93% | Fv/Fm (Vicia faba thylakoids; Diuron 10^-6 M, mean of at least three measures): 0,540 | Area (Vicia faba thylakoids; [19]): 4030 | Fv/Fm (Vicia faba thylakoids; [19]): 0,475 | inhibition at 0.001 µM (Vicia faba thylakoids; [19]): 60% | Resistance R/S (I1e228->Leu): Diuron 1 | Resistance R/S (Thr226->Met): Diuron 1

CSc1nnc(C(C)(C)C)c(=O)n1N [Metribuzin]
Supersensitivity R/S [7]: 0,5 | Supersensitivity R/S (D1 protein Ala250->Arg): Metribuzin 0,5 | Supersensitivity R/S (D1 protein Phe255->Tyr [3]): Metribuzin 0,6 | Supersensitivity R/S [8]: 0,5 | Supersensitivity R/S (D1 protein Ala250->Asn): Metribuzin 0,8 | Supersensitivity R/S (D1 protein Phe255->Tyr [9]): Metribuzin 0,8 | Supersensitivity R/S (D1 protein A1a251→Gly): Metribuzin 0,6

N#Cc1cc(I)c(O)c(I)c1 [loxynil]
Supersensitivity R/S [10]: loxynil 0,13 | Supersensitivity R/S (D1 protein A1a250->Tyr): loxynil 0,8 | Supersensitivity R/S (D1 protein Arg257->Val): loxynil 0,8 | Supersensitivity R/S (D1 protein Ser264->Thr): loxynil 0,2 | Supersensitivity R/S (D1 protein Ala250->Asp): loxynil 0,2 | Supersensitivity R/S (D1 protein Ser264->Ala [11]): loxynil 0,4 | Supersensitivity R/S [12]: locynil 0,2 | Supersensitivity R/S [7]: loxynil 0,2 | Supersensitivity R/S (D1 protein Ala250->Arg): loxynil 0,5 | Supersensitivity R/S [13]: loxynil 0,5 | Supersensitivity R/S [14]: loxynil 0,8 | Supersensitivity R/S (Tyr222->Phe): Iloxynil <0,01 | Supersensitivity R/S (D1 protein Ser264->Ala [15]): loxynil 0,5 | sensitivity (concentration) (PS II): one order of magnitude higher | Supersensitivity R/S [16]: loxynil 0,8
